Measurements from ChEMBL document CHEMBL1201862, “PubChem BioAssay data set” (2004).
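Grown in 96-well plates, cells were treated for 48 hours with each compound at five concentrations. Insufficient inhibition: endpoint recorded as highest concentration tested. GI50 marks 50% less growth.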 Calls of active or inactive are those of the source. Cut-off read from the data, not from the text of the source: active = GI50 up to about 1.1 µM and inactive = higher.

Assays:
Test in all cases: NCI tumour cell line growth inhibition, 48 h
[1] = tested on: COLO 205
[2] = tested on: EKVX
[3] = tested on: K562
[4] = tested on: KM12
[5] = tested on: LOX IMVI
[6] = tested on: MOLT-4
[7] = tested on: NCI-H522
[8] = tested on: OVCAR-3
[9] = tested on: OVCAR-4
[10] = tested on: OVCAR-8
[11] = tested on: SF-539
[12] = tested on: SK-MEL-2
[13] = tested on: SW-620
[14] = tested on: TK-10
[15] = tested on: UO-31
[16] = tested on: NCI-H226
[17] = tested on: HCC 2998

Compound	GI50 [1]	GI50 [2]	GI50 [3]	GI50 [4]	GI50 [5]	GI50 [6]	GI50 [7]	GI50 [8]	GI50 [9]	GI50 [10]	GI50 [11]	GI50 [12]	GI50 [13]	GI50 [14]	GI50 [15]	GI50 [16]	GI50 [17]
CC(Cn1c2c3ccccc3ccc2c2oc(=O)c3ccccc3c21)N(C)C (stereo unspecified)	> 100 µM (inactive)	> 100 µM (inactive)	> 100 µM (inactive)	> 100 µM (inactive)	> 100 µM (inactive)	> 100 µM (inactive)	> 100 µM (inactive)	> 100 µM (inactive)	> 100 µM (inactive)	> 100 µM (inactive)	> 100 µM (inactive)	> 100 µM (inactive)	> 100 µM (inactive)	> 100 µM (inactive)	> 100 µM (inactive)	–	–
Cc1[nH]c2c(C)cccc2c1C1Cc2ccccc2N1 (stereo unspecified)	18.2 µM (inactive)	15.5 µM (inactive)	29.2 µM (inactive)	17.5 µM (inactive)	17.1 µM (inactive)	20.5 µM (inactive)	19.5 µM (inactive)	16.7 µM (inactive)	–	19.5 µM (inactive)	17.8 µM (inactive)	28.8 µM (inactive)	26.4 µM (inactive)	23 µM (inactive)	22.1 µM (inactive)	23.8 µM (inactive)	–
O=C1c2ccccc2N2OC3(N4CCCC4)CCCCC3C12c1ccccc1 (stereo unspecified)	17.3 µM (inactive)	69.8 µM (inactive)	19.5 µM (inactive)	–	–	35.7 µM (inactive)	14.9 µM (inactive)	–	14.5 µM (inactive)	17.5 µM (inactive)	31.4 µM (inactive)	–	17.7 µM (inactive)	–	39.7 µM (inactive)	37.3 µM (inactive)	53 µM (inactive)
COc1ccc(C(Cc2cc(OC)c(OC)c(OC)c2)C(=O)O)cc1 (stereo unspecified)	> 100 µM (inactive)	63 µM (inactive)	40.4 µM (inactive)	41.8 µM (inactive)	> 100 µM (inactive)	–	–	24.3 µM (inactive)	> 100 µM (inactive)	> 100 µM (inactive)	42.6 µM (inactive)	52 µM (inactive)	46.9 µM (inactive)	> 100 µM (inactive)	72.3 µM (inactive)	13.6 µM (inactive)	> 100 µM (inactive)
CN1CCc2ccccc2C(C(=O)c2ccc3c(c2)OCO3)C1=O (stereo unspecified)	> 100 µM (inactive)	–	> 100 µM (inactive)	> 100 µM (inactive)	> 100 µM (inactive)	> 100 µM (inactive)	> 100 µM (inactive)	> 100 µM (inactive)	89.3 µM (inactive)	> 100 µM (inactive)	–	> 100 µM (inactive)	> 100 µM (inactive)	> 100 µM (inactive)	94 µM (inactive)	99.5 µM (inactive)	–
COC(=O)/C=C1/CCC(C(=O)OC)N1 (stereo unspecified)	> 100 µM (inactive)	> 100 µM (inactive)	> 100 µM (inactive)	> 100 µM (inactive)	> 100 µM (inactive)	> 100 µM (inactive)	–	> 100 µM (inactive)	> 100 µM (inactive)	> 100 µM (inactive)	> 100 µM (inactive)	> 100 µM (inactive)	> 100 µM (inactive)	> 100 µM (inactive)	> 100 µM (inactive)	–	> 100 µM (inactive)
COc1ccc(S(=O)(=O)N/N=C/CN2C(=O)c3ccccc3C2=O)cc1	> 100 µM (inactive)	> 100 µM (inactive)	> 100 µM (inactive)	> 100 µM (inactive)	> 100 µM (inactive)	> 100 µM (inactive)	> 100 µM (inactive)	–	> 100 µM (inactive)	> 100 µM (inactive)	> 100 µM (inactive)	> 100 µM (inactive)	> 100 µM (inactive)	> 10 µM (inactive)	> 10 µM (inactive)	47 µM (inactive)	> 100 µM (inactive)
CCOC(=O)C(=O)Nc1nc2ccc(C)cc2s1	> 100 µM (inactive)	> 100 µM (inactive)	> 100 µM (inactive)	> 100 µM (inactive)	–	> 100 µM (inactive)	> 100 µM (inactive)	> 100 µM (inactive)	> 100 µM (inactive)	> 100 µM (inactive)	0.995 µM (active)	> 100 µM (inactive)	> 100 µM (inactive)	–	> 100 µM (inactive)	> 100 µM (inactive)	> 100 µM (inactive)
COC(=O)C1=C(c2cc(OC)c(OC)c(OC)c2)O[C@H](c2ccc3c(c2)OCO3)[C@H]1COC(C)=O	10.7 µM (inactive)	41.6 µM (inactive)	21.3 µM (inactive)	20.2 µM (inactive)	32.1 µM (inactive)	18.7 µM (inactive)	–	30.5 µM (inactive)	29 µM (inactive)	39.3 µM (inactive)	26.3 µM (inactive)	27.2 µM (inactive)	25.2 µM (inactive)	39.2 µM (inactive)	20.9 µM (inactive)	33 µM (inactive)	18.3 µM (inactive)
CC(=O)OCc1c(O)nc2c(c1O)-c1ccccc1CC2	57 µM (inactive)	125 µM (inactive)	109 µM (inactive)	53.2 µM (inactive)	61.4 µM (inactive)	97.5 µM (inactive)	35.6 µM (inactive)	51.5 µM (inactive)	–	101 µM (inactive)	89.1 µM (inactive)	> 35 µM (inactive)	56.4 µM (inactive)	86.9 µM (inactive)	–	> 350 µM (inactive)	80.9 µM (inactive)
O=C1C=C(Nc2ccccc2C(=O)c2ccccc2)c2ccccc2C1=O	> 100 µM (inactive)	> 100 µM (inactive)	–	33.3 µM (inactive)	–	–	25 µM (inactive)	70 µM (inactive)	89.3 µM (inactive)	> 100 µM (inactive)	> 100 µM (inactive)	> 100 µM (inactive)	87.9 µM (inactive)	–	> 100 µM (inactive)	> 100 µM (inactive)	> 100 µM (inactive)
COc1cc2noc(-c3ccccc3)c2cc1OC	55.3 µM (inactive)	–	50.6 µM (inactive)	29 µM (inactive)	40.6 µM (inactive)	26.4 µM (inactive)	36.4 µM (inactive)	–	> 100 µM (inactive)	64.4 µM (inactive)	10.6 µM (inactive)	75.9 µM (inactive)	57.3 µM (inactive)	80.9 µM (inactive)	34.8 µM (inactive)	> 100 µM (inactive)	58.1 µM (inactive)
CCOC(=O)CNC(SC)=C(C#N)C#N	> 100 µM (inactive)	> 100 µM (inactive)	> 100 µM (inactive)	> 100 µM (inactive)	> 100 µM (inactive)	> 100 µM (inactive)	> 100 µM (inactive)	> 100 µM (inactive)	> 100 µM (inactive)	> 100 µM (inactive)	> 100 µM (inactive)	–	> 100 µM (inactive)	> 100 µM (inactive)	36.7 µM (inactive)	> 100 µM (inactive)	> 100 µM (inactive)
Nc1ncnc2c1ncn2CCCC(c1ccccc1)P(=O)(O)O (stereo unspecified)	> 100 µM (inactive)	> 100 µM (inactive)	–	> 100 µM (inactive)	> 100 µM (inactive)	–	> 100 µM (inactive)	> 100 µM (inactive)	–	> 100 µM (inactive)	> 100 µM (inactive)	> 100 µM (inactive)	> 100 µM (inactive)	> 100 µM (inactive)	> 100 µM (inactive)	> 100 µM (inactive)	> 100 µM (inactive)
